Measurements as given in PubChem BioAssay (NCI).
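Values below derive from 48-hour exposures of cells grown in 96-well plates, with endpoints linearly interpolated between the two concentrations bracketing the appropriate inhibition level. Abbreviation: GI50, concentration required for 50% inhibition of growth. Definition used: TGI = concentration required for complete inhibition of growth.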

Legend:
Experiment in all cases: inhibition of tumour cell growth, NCI panel, 48 h
[1] = tested on: ACHN renal
[2] = tested on: SK-MEL-2 melanoma
[3] = tested on: A549 NSCLC
[4] = tested on: SNB-75 CNS
[5] = tested on: M14 melanoma
[6] = tested on: T-47D breast
[7] = tested on: HCT-116 colon
[8] = tested on: NCI-H226 lung
[9] = tested on: MDA-MB-435
[10] = tested on: SW-620 colon
[11] = tested on: K-562 leukemia
[12] = tested on: EKVX NSCLC
[13] = tested on: SF-539 CNS
[14] = tested on: UACC-257 melanoma
[15] = tested on: RXF 393 renal
[16] = tested on: 786-0 renal
[17] = tested on: SK-MEL-5 melanoma
[18] = tested on: DU-145 prostate
[19] = tested on: SK-OV-3 ovarian
[20] = tested on: MDA-MB-231 breast
[21] = tested on: TK-10 renal
[22] = tested on: UO-31 renal
[23] = tested on: SNB-19 CNS
[24] = tested on: OVCAR-3 ovarian
[25] = tested on: BT-549 breast
[26] = tested on: U251 CNS
[27] = tested on: HCC-2998 colon
[28] = tested on: HCT-15 colon
[29] = tested on: LOX IMVI melanoma
[30] = tested on: MALME-3M melanoma
[31] = tested on: SF-295 CNS
[32] = tested on: SK-MEL-28 melanoma
[33] = tested on: UACC-62 melanoma
[34] = tested on: A498 renal
[35] = tested on: IGROV1 ovarian
[36] = tested on: HT29 colon
[37] = tested on: RPMI-8226 leukemia
[38] = tested on: CCRF-CEM leukemia
[39] = tested on: SR leukemia
[40] = tested on: HL-60(TB) leukemia
[41] = tested on: NCI-H23 lung
[42] = tested on: NCI-H522 lung
[43] = tested on: PC-3 prostate
[44] = tested on: HOP-62 NSCLC
[45] = tested on: SF-268 CNS
[46] = tested on: KM12 colon
[47] = tested on: MOLT-4 leukemia
[48] = tested on: COLO 205 colon
[49] = tested on: NCI-H460 lung
[50] = tested on: HOP-92 NSCLC
[51] = tested on: MCF7 breast
[52] = tested on: OVCAR-5 ovarian
[53] = tested on: SN12C renal
[54] = tested on: MDA-MB-468 breast
[55] = tested on: NCI/ADR-RES ovarian
[56] = tested on: HS 578T breast
[57] = tested on: CAKI-1 renal
[58] = tested on: OVCAR-4 ovarian
[59] = tested on: OVCAR-8 ovarian

## O=C(NO)c1ccc(CNc2nc(-c3ccccc3)c3ccccc3n2)cc1
[1]
  GI50: 2.05 µM
  TGI: 5.55 µM
[2]
  GI50: 1.42 µM
  TGI: 7.54 µM
[3]
  GI50: 3.23 µM
  TGI: > 13.4 µM
[4]
  GI50: 2.36 µM
  TGI: > 12 µM
[5]
  GI50: 3.2 µM
  TGI: > 13.5 µM
[6]
  GI50: 2.28 µM
  TGI: 21.7 µM
[7]
  GI50: 2.04 µM
  TGI: 8.01 µM
[8]
  GI50: 2.67 µM
  TGI: 14.6 µM
[9]
  GI50: 2.4 µM
  TGI: > 9.06 µM
[10]
  GI50: 2.09 µM
  TGI: 5.91 µM
[11]
  GI50: 3.05 µM
  TGI: > 28 µM
[12]
  GI50: 3.59 µM
  TGI: > 17 µM
[13]
  GI50: 2.77 µM
  TGI: > 11.3 µM
[14]
  GI50: 2.02 µM
  TGI: > 16.5 µM
[15]
  GI50: 1.23 µM
  TGI: 3.58 µM
[16]
  GI50: 2.75 µM
  TGI: 11.8 µM
[17]
  GI50: 1.62 µM
  TGI: 3.32 µM
[18]
  GI50: 2.78 µM
  TGI: > 28 µM
[19]
  GI50: 2.15 µM
  TGI: 6.25 µM
[20]
  GI50: 2.44 µM
  TGI: 8.22 µM
[21]
  GI50: 2.12 µM
  TGI: > 19.8 µM
[22]
  GI50: 1.99 µM
  TGI: 6.71 µM
[23]
  GI50: 2.83 µM
  TGI: 9.91 µM
[24]
  GI50: 2.68 µM
  TGI: 8.7 µM
[25]
  GI50: 3.99 µM
  TGI: 15.8 µM
[26]
  GI50: 2.37 µM
  TGI: 8.78 µM
[27]
  GI50: 1.82 µM
  TGI: 5.63 µM
[28]
  GI50: 2.85 µM
  TGI: 9.1 µM
[29]
  GI50: 2.08 µM
  TGI: 5.35 µM
[30]
  GI50: 1.36 µM
  TGI: 4.72 µM
[31]
  GI50: 1.84 µM
  TGI: 4.69 µM
[32]
  GI50: 2.42 µM
  TGI: 8.17 µM
[33]
  GI50: 1.34 µM
  TGI: 3.16 µM
[34]
  GI50: 1.68 µM
  TGI: 5.45 µM
[35]
  GI50: 2.29 µM
  TGI: 6.96 µM
[36]
  GI50: 2.46 µM
  TGI: > 23.3 µM
[37]
  GI50: 2.36 µM
  TGI: > 28 µM
[38]
  GI50: 2.73 µM
  TGI: > 28 µM
[39]
  GI50: > 18.1 µM
  TGI: > 28 µM
[40]
  GI50: 3.59 µM
  TGI: > 28 µM
[41]
  GI50: 2.24 µM
  TGI: 7.72 µM
[42]
  GI50: 1.85 µM
  TGI: 8.25 µM
[43]
  GI50: 4.84 µM
  TGI: 27.3 µM
[44]
  GI50: 2.88 µM
  TGI: 12.2 µM
[45]
  GI50: 3.57 µM
  TGI: 15.2 µM
[46]
  GI50: 3.69 µM
  TGI: > 12.5 µM
[47]
  GI50: 3.01 µM
  TGI: > 28 µM
[48]
  GI50: 1.69 µM
  TGI: 3.81 µM
[49]
  GI50: 3.04 µM
  TGI: > 17.1 µM
[50]
  GI50: 1.95 µM
  TGI: 6.6 µM
[51]
  GI50: 3.22 µM
  TGI: > 28 µM
[52]
  GI50: 1.55 µM
  TGI: 4.87 µM
[53]
  GI50: 3.09 µM
  TGI: 12 µM
[54]
  GI50: 1.49 µM
  TGI: 5.41 µM
[55]
  GI50: 0.159 µM
  TGI: 0.954 µM
[56]
  GI50: 2.47 µM
  TGI: > 28 µM
[57]
  GI50: 2.5 µM
  TGI: 8.52 µM
[58]
  GI50: 5.4 µM
  TGI: > 20.6 µM
[59]
  GI50: 2.65 µM
  TGI: > 12.4 µM
